Reference: ChEMBL document CHEMBL3132854, “Synthesis and anticancer activity evaluation of resveratrolchalcone conjugates” (2014)

Tests used:
Type in all cases: functional
[1] = tested on: HOP-62; assay: Cytotoxicity against human HOP62 cells by sulforhodamine B assay
[2] = tested on: SN12C; assay: Cytotoxicity against human SN12C cells by sulforhodamine B assay
[3] = tested on: U-251; assay: Cytotoxicity against human U251 cells by sulforhodamine B assay
[4] = tested on: CCRF-CEM; assay: Cytotoxicity against human CCRF-CEM cells by sulforhodamine B assay
[5] = tested on: CAKI-1; assay: Cytotoxicity against human CAKI-1 cells by sulforhodamine B assay
[6] = tested on: SF-539; assay: Cytotoxicity against human SF539 cells by sulforhodamine B assay
[7] = tested on: BT-549; assay: Cytotoxicity against human BT549 cells by sulforhodamine B assay
[8] = tested on: HCT-116; assay: Cytotoxicity against human HCT116 cells by sulforhodamine B assay
[9] = tested on: PC-3; assay: Cytotoxicity against human PC3 cells by sulforhodamine B assay
[10] = tested on: IGROV-1; assay: Cytotoxicity against human IGROV1 cells by sulforhodamine B assay
[11] = read-out: LC50 (the source's name)

COc1ccc(C(=O)/C=C/c2ccc(/C=C/c3cc(OC)c(OC)c(OC)c3)cc2)cc1
GI50 [1]: 1.28 µM
TGI [1]: 63.8 µM
CC50 [1, 11]: > 100 µM
GI50 [2]: 9.61 µM
TGI [2]: > 100 µM
CC50 [2, 11]: > 100 µM
GI50 [3]: 5.09 µM
TGI [3]: 54.7 µM
CC50 [3, 11]: > 100 µM
GI50 [4]: 4.15 µM
TGI [4]: > 100 µM
CC50 [4, 11]: > 100 µM
GI50 [5]: 14.6 µM
TGI [5]: > 100 µM
CC50 [5, 11]: > 100 µM
GI50 [6]: 12.2 µM
TGI [6]: 78.3 µM
CC50 [6, 11]: > 100 µM
GI50 [7]: 3.36 µM
TGI [7]: 16.8 µM
CC50 [7, 11]: > 100 µM
GI50 [8]: 2.62 µM
TGI [8]: > 100 µM
CC50 [8, 11]: > 100 µM
GI50 [9]: 5.65 µM
TGI [9]: > 100 µM
CC50 [9, 11]: > 100 µM
GI50 [10]: 9.24 µM
TGI [10]: 76.4 µM
CC50 [10, 11]: > 100 µM
